In US20220324800A1 (priority 2021, published 2022):

target: 3CLpro (Severe acute respiratory syndrome coronavirus 2, UniProt P0DTD1); assay: biochemical; design: species or system SARS-CoV-2

| SMILES | IC50 [nM] |
| --- | --- |
| CC(C)C[C@H](NC(=O)OC(C)(C)C)C(=O)CN(C[C@@H]1CCNC1=O)C(=O)CCl [Example 1, Tert-butyl ((S)-1-(2-chloro-N—(((S)-2-oxopyrrolidin-3-yl)methyl)acetamido)-5-methyl-2-oxohexan-3-yl)carbamate] | < 2000 |
| COc1cccc2[nH]c(C(=O)N[C@@H](CC(C)C)C(=O)CN(C[C@@H]3CCNC3=O)C(=O)CCl)cc12 [Example 2, N—((S)-1-(2-Chloro-N—(((S)-2-oxopyrrolidin-3-yl)methyl)acetamido)-5-methyl-2-oxohexan-3-yl)-4-methoxy-1H-indole-2-carboxamide] | < 2000 |
| C=CC(=O)N(CC(=O)[C@H](CC(C)C)NC(=O)OC(C)(C)C)C[C@@H]1CCNC1=O [Example 3, Tert-butyl ((S)-5-methyl-2-oxo-1-(N—(((S)-2-oxopyrrolidin-3-yl)methyl)acrylamido)hexan-3-yl)carbamate] | > 20000 |
| C=CC(=O)N(CC(=O)[C@H](CC(C)C)NC(=O)c1cc2c(OC)cccc2[nH]1)C[C@@H]1CCNC1=O [Example 4, 4-Methoxy-N—((S)-5-methyl-2-oxo-1-(N—(((S)-2-oxopyrrolidin-3-yl)methyl)acrylamido)hexan-3-yl)-1H-indole-2-carboxamide] | > 20000 |
| C#CC(=O)N(CC(=O)[C@H](CC(C)C)NC(=O)c1cc2c(OC)cccc2[nH]1)C[C@@H]1CCNC1=O [Example 6, 4-Methoxy-N—((S)-5-methyl-2-oxo-1-(N—(((S)-2-oxopyrrolidin-3-yl)methyl)propiolamido)hexan-3-yl)-1H-indole-2-carboxamide] | 2000 to 20000 |
| COc1cccc2[nH]c(C(=O)N[C@@H](CC(C)C)C(=O)CN(C[C@@H]3CCNC3=O)C(=O)CF)cc12 [Example 8, N—((S)-1-(2-Fluoro-N—(((S)-2-oxopyrrolidin-3-yl)methyl)acetamido)-5-methyl-2-oxohexan-3-yl)-4-methoxy-1H-indole-2-carboxamide] | > 20000 |
| COc1cccc2[nH]c(C(=O)N[C@@H](CC(C)C)C(=O)CN(C[C@@H]3CCNC3=O)S(=O)(=O)CCl)cc12 [Example 10, N—((S)-1-((1-Chloro-N—(((S)-2-oxopyrrolidin-3-yl)methyl)methyl)sulfonamido)-5-methyl-2-oxohexan-3-yl)-4-methoxy-1H-indole-2-carboxamide] | > 20000 |
| CC(C)C[C@H](NC(=O)c1cc(Cl)c(Cl)s1)C(=O)CN(C[C@@H]1CCNC1=O)C(=O)CCl [Example 11, 4,5-Dichloro-N—((S)-1-(2-chloro-N—(((S)-2-oxopyrrolidin-3-yl)methyl)acetamido)-5-methyl-2-oxohexan-3-yl)thiophene-2-carboxamide] | < 2000 |
| CC(C)C[C@H](NC(=O)c1cc2c(F)cccc2s1)C(=O)CN(C[C@@H]1CCNC1=O)C(=O)CCl [Example 12, N—((S)-1-(2-Chloro-N—(((S)-2-oxopyrrolidin-3-yl)methyl)acetamido)-5-methyl-2-oxohexan-3-yl)-4-fluorobenzo[b]thiophene-2-carboxamide] | < 2000 |
| CC(C)C[C@H](NC(=O)c1cccs1)C(=O)CN(C[C@@H]1CCNC1=O)C(=O)CCl [Example 13, N—((S)-1-(2-Chloro-N—(((S)-2-oxopyrrolidin-3-yl)methyl)acetamido)-5-methyl-2-oxohexan-3-yl)thiophene-2-carboxamide] | < 2000 |
| CC(C)C[C@H](NC(=O)c1cc2ccccc2o1)C(=O)CN(C[C@@H]1CCNC1=O)C(=O)CCl [Example 14, N—((S)-1-(2-Chloro-N—(((S)-2-oxopyrrolidin-3-yl)methyl)acetamido)-5-methyl-2-oxohexan-3-yl)benzofuran-2-carboxamide] | < 2000 |
| CC(C)C[C@H](NC(=O)c1cc2c(F)cccc2o1)C(=O)CN(C[C@@H]1CCNC1=O)C(=O)CCl [Example 15, N—((S)-1-(2-Chloro-N—(((S)-2-oxopyrrolidin-3-yl)methyl)acetamido)-5-methyl-2-oxohexan-3-yl)-4-fluorobenzofuran-2-carboxamide] | < 2000 |
| CC(C)C[C@H](NC(=O)OC(C)(C)C)C(=O)CN(C[C@@H]1CCNC1=O)C(=O)SCc1ccccc1 [Example 16, Tert-butyl ((S)-1-(((benzylthio)carbonyl)(((S)-2-oxopyrrolidin-3-yl)methyl)amino)-5-methyl-2-oxohexan-3-yl)carbamate] | > 20000 |
| CC(=O)OCC(=O)N(CC(=O)[C@H](CC(C)C)NC(=O)OC(C)(C)C)C[C@@H]1CCNC1=O [Example 17, 2-(((S)-3-((Tert-butoxycarbonyl)amino)-5-methyl-2-oxohexyl)(((S)-2-oxopyrrolidin-3-yl)methyl)amino)-2-oxoethyl acetate] | > 20000 |
| COc1cccc2[nH]c(C(=O)N[C@@H](CC(C)C)C(=O)CN(C[C@@H]3CCNC3=O)C(=O)SCc3ccccc3)cc12 [Example 18, S-Benzyl ((S)-3-(4-methoxy-1H-indole-2-carboxamido)-5-methyl-2-oxohexyl)(((S)-2-oxopyrrolidin-3-yl)methyl)carbamothioate] | > 20000 |
| CC(C)C[C@H](NC(=O)OCc1ccccc1)C(=O)CN(C[C@@H]1CCNC1=O)C(=O)CCl [Example 20, Benzyl ((S)-1-(2-chloro-N—(((S)-2-oxopyrrolidin-3-yl)methyl)acetamido)-5-methyl-2-oxohexan-3-yl)carbamate] | < 2000 |
| CC(C)C[C@@H](NC(=O)OCc1ccccc1)C(=O)CN(C[C@@H]1CCNC1=O)C(=O)CCl [Example 21, Benzyl ((R)-1-(2-chloro-N—(((S)-2-oxopyrrolidin-3-yl)methyl)acetamido)-5-methyl-2-oxohexan-3-yl)carbamate] | 2000 to 20000 |
